According to patent publication US20140261474A1, “METHODS FOR INHALATION OF SMOKE-FREE NICOTINE” (priority 2013, published 2014):
Read-outs that look alike come from different tables or passages of the source.

Legend:
[1] = tested on: healthy volunteers (two ex-smokers and one non-smoker); details: in vivo
[2] = from cigarettes containing 6 to 11 mg of nicotine; cited from earlier work
smokers = details: nicotine containing droplets delivered to the alveolar region; cited from earlier work

| Compound | Adverse effects ([1]; pH 2.9) | Comment (sensory perceptions and effects) ([1]; pH 3) | Adverse effects ([1]; pH 3.2) | Comment (sensory perceptions and effects) ([1]; pH 3.2) | Presence/Intensity of “buzz” ([1]; pH 3.2) | nicotine the smoker typically absorbs [2] [mg] | craving for cigarettes (smokers) |
| --- | --- | --- | --- | --- | --- | --- | --- |
| CN1CCCC1c1cccnc1.O=C(O)C(O)C(O)C(=O)O (stereo not shown) [Nicotine Bitartrate, Nicotine bitartrate] | Slight | No taste, buzz | Slight | No taste, buzz | None |  |  |
| CN1CCC[C@H]1c1cccnc1 [nicotine, S-3-(1-methyl-2-pyrrolidinyl)pyridine] |  |  |  |  |  | 1 to 3 | very rapid and sustained reduction of craving for cigarettes |
